Source: the NIST ThermoML archive (doi:10.1016/j.jct.2006.09.012)

Conditions: Liquid, Buoyancy - hydrostatic balance with magnetic suspension - two sinkers

CCOC(F)(C(F)(F)C(F)(F)C(F)(F)F)C(F)(C(F)(F)F)C(F)(F)F (stereo not drawn) [2-trifluoromethyl-3-ethoxydodecafluorohexane]
Conditions	mass density [kg/m3]
285 K, 1204.2 kPa	1650.59
285 K, 1204.8 kPa	1650.6
285 K, 1205.2 kPa	1650.59
285 K, 5212.8 kPa	1659.79
285 K, 5220.2 kPa	1659.81
285 K, 10181 kPa	1670.44
285 K, 10197 kPa	1670.47
308 K, 19845 kPa	1649.2
308.01 K, 1314.5 kPa	1604.24
308.01 K, 1320.9 kPa	1604.26
308.01 K, 1331 kPa	1604.29
308.01 K, 5215.7 kPa	1614.98
308.01 K, 5219.6 kPa	1614.99
308.01 K, 5223.4 kPa	1615
308.01 K, 10450 kPa	1628.17
308.01 K, 10468 kPa	1628.21
308.01 K, 10476 kPa	1628.24
308.01 K, 19786 kPa	1649.07
308.01 K, 19825 kPa	1649.16
350 K, 1285.8 kPa	1515.32
350 K, 1286 kPa	1515.32
350 K, 1286.3 kPa	1515.32
350 K, 1286.4 kPa	1515.32
350 K, 1286.7 kPa	1515.32
350 K, 1286.8 kPa	1515.32
350 K, 5286.1 kPa	1531.01
350 K, 5291 kPa	1531.03
350 K, 10388 kPa	1548.66
350 K, 10394 kPa	1548.69
350 K, 10401 kPa	1548.71
350 K, 16836 kPa	1568.2
350 K, 16850 kPa	1568.24
350 K, 17082 kPa	1568.89
350 K, 19716 kPa	1576.14
350 K, 19732 kPa	1576.18
350 K, 19786 kPa	1576.33
400 K, 1164.3 kPa	1398.22
400 K, 1164.4 kPa	1398.22
400 K, 1164.7 kPa	1398.23
400 K, 5225.5 kPa	1424.08
400 K, 5227.2 kPa	1424.09
400 K, 5228.8 kPa	1424.1
400 K, 9975.6 kPa	1448.91
400 K, 9979.7 kPa	1448.93
400 K, 9984.1 kPa	1448.95
400 K, 19197 kPa	1487.27
400 K, 19208 kPa	1487.3
400 K, 19218 kPa	1487.34
400 K, 19258 kPa	1487.49
400 K, 19276 kPa	1487.55
400 K, 19287 kPa	1487.59
400 K, 19317 kPa	1487.71
400 K, 19328 kPa	1487.74
400 K, 19347 kPa	1487.81
400 K, 19369 kPa	1487.89
400 K, 19380 kPa	1487.93
400 K, 19391 kPa	1487.97
400 K, 19416 kPa	1488.07
400 K, 19495 kPa	1488.35
400 K, 19519 kPa	1488.44
400 K, 19543 kPa	1488.53
400 K, 19560 kPa	1488.59
400 K, 19582 kPa	1488.67
